In ChEMBL document CHEMBL1141961, “Identification of coumarin derivatives as a novel class of allosteric MEK1 inhibitors” (Bioorg Med Chem Lett, 2005) one finds Activity and IC50 data, which are given here for 3 compounds.

Test [1] concerns the target T1, Dual specificity mitogen-activated protein kinase kinase 1 (Homo sapiens, UniProt Q02750). The experiment in a line: Inhibition of ERK phosphorylation in THP1 cells. It counts as functional, cell-based. As to conditions: THP-1.
The nature of test [2]: Inhibition of human MEK1 activation by COT in COT-MEK-ERK coupling assay.
Test [3] addresses T1, Dual specificity mitogen-activated protein kinase kinase 1. The experiment in a line: Inhibition of activated human MEK1 in MEK-ERK coupling assay.
Test [4] is described as follows: Inhibition of LPS-induced TNFalpha production in human monocyte THP1 cells. The format is functional, cell-based. Particulars: THP-1.
In test [5] the target is T1, Dual specificity mitogen-activated protein kinase kinase 1. In words: Inhibition of activated human MEK1 in MEK-ERK coupling assay at 10 uM.
The target is the same in test [6]. The experiment in a line: Inhibition of human MEK1 activation by bRaf in RAF-MEK-ERK coupling assay.

Active and inactive are the calls of the source. The calls are words filed in the database; no cut-off is given here.

T1 sequence (Q02750 whole entry): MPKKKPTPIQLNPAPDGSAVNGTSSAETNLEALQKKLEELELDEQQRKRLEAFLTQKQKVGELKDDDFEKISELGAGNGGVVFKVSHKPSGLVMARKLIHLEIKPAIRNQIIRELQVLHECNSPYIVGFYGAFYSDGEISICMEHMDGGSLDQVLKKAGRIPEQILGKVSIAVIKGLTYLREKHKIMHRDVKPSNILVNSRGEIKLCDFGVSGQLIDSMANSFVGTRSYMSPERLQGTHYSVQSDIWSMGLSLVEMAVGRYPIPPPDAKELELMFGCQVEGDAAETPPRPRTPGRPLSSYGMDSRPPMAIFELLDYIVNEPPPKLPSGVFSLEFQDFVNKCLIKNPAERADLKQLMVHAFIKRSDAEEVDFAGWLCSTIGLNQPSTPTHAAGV

For orientation: IC50 means the midpoint of a concentration-inhibition curve. A higher IC50 goes with weaker potency in that assay. Take `Cc1c(Cc2ccccc2)c(=O)oc2cc(OC(=O)N(C)C)c(Cl)cc12`: the outcome in test [1] was Active. Also, the IC50 in test [2] stood at 70 nM; in test [3] it was 10000 nM; in test [4] it was 90 nM.
Turning to `Cc1c(Cc2ccc(F)cc2)c(=O)oc2cc(OC(=O)N(C)C)ccc12`, the result in test [1] was Active. Besides, the values for the IC50 in test [2], in test [4] and in test [6] were 300 nM, 200 nM and 300 nM, respectively. Further, in test [5], the outcome was inactive.
Turning to `Cc1c(Cc2ccccc2)c(=O)oc2cc(OC(=O)C3CC3)ccc12`, the half-inhibitory concentration (IC50) in test [2] and in test [6] was 200 nM each time. Further, the result in test [5] was inactive.
